In patent publication US5760036A, “Aminediol protease inhibitors” (E. R. Squibb & Sons, Inc., priority 1995, dated 1998):
Structures can show the parent of a compound that is named as a salt. Where two headings read alike, the source gives them in different places.

What was measured:
HIV protease = target: T1, HIV protease (Human immunodeficiency virus type 1 group M subtype B, UniProt P04585); experiment: HIV Protease Assay; format: biochemical
T1 construct: and purified protease
Outline: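 Purified protease cleaved 450 μM octapeptide substrate in 50 mM sodium acetate pH 5.5 with 100 μg/ml BSA for 30 minutes at 37° C; product analyzed by reverse-phase HPLC at UV220 after H3PO4 quench. Inhibitors tested at final 10 μM with 4% DMSO.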

[1] = tested on: RF strain of HIV (CEM-SS cells); experiment: Cell Culture Anti-HIV Activity (cell viability, formazan); format: cell-based; details: Human immunodeficiency virus 1, CEM-SS, 144 h, CEM-SS cells, RF strain of HIV, multiplicity of infection 0.04, 6 days at 37° C., 450 nm; read-out: HIV (CEM Cells) IC50
Description: The antiviral activity of aminediol inhibitors of the present invention was evaluated by a microculture method which determines the increase in cell viability of an infected culture when a drug is added. The assay depends on the metabolic reduction of tetrazolium reagent by viable cells to yield a soluble colored formazan product.
The assay was performed as follows: suspensions of CEM-SS cells (5000/well) were infected with the RF strain of HIV at a multiplicity of infection at 0.04 in a 96-well plate. The compounds of the present invention listed in the following Table 1, serially diluted in half-log fashion, were added to the infected and uninfected control cells. Untreated (infected and uninfected) cells were included as controls. Following incubation for 6 days at 37° C., viable cells in each well were quantitated by the visible light absorbance at 450 nm.
The IC50 was calculated as the concentration of drug that increased the formazan production in virally infected cells to 50% of that produced by uninfected cells in the absence of drug.

[2] = pH 5.5, 10 μM inhibitor, 4% DMSO, 450 μM substrate, pH 5.5, 30 minutes at 37° C., RP-HPLC, read-out: HIV Protease % Inhibition at 10 μM

| SMILES | inhibition at 10 µM (HIV protease; [2]) [%] | IC50 [1] [nM] | inhibition at 10 µM (HIV protease; pH 5.5, read-out: HIV Protease % Inhibition at 10 μM) [%] | HIV Protease % Inhibition at 10 μM (HIV protease; 10 μM inhibitor, 4% DMSO, 450 μM substrate, pH 5.5, 30 minutes at 37° C., RP-HPLC) [%] |
| --- | --- | --- | --- | --- |
| CC(C)(C)OC(=O)N[C@@H](Cc1ccccc1)[C@H](O)CNC[C@@H](O)[C@H](Cc1ccccc1)NC(=O)OC(C)(C)CCCNCc1ccccc1 [Compound 153, [1S-(1R*,2S*)]-[Iminobis[2-hydroxy-1-(phenylmethyl)-3,1-propanediyl]biscarbamic acid, 1,1-dimethylethyl 1,1-dimethyl-4-[(phenylmethyl)-amino]butyl ester] | 65 | > 550 | – | – |
| CC(C)(C)OC(=O)N[C@@H](Cc1ccccc1)[C@H](O)CNC[C@@H](O)[C@H](Cc1ccccc1)NC(=O)[C@H](CCO)NC(=O)OCc1ccccc1 (relative stereo) [Compound 264, [1R*2S*(2S*,3R*)]-N-[3-[[3-[[(1,1-Dimethylethoxy)carbonyl]amino]-2-hydroxy-4-phenylbutyl]amino]-2-hydroxy-l-(phenylmethyl)propyl]-N^2-[(phenylmethoxy)carbonyl]-L-homoserinamide] | 99 | 160 | – | – |
| CC(C)(C)OC(=O)N[C@@H](Cc1ccccc1)[C@H](O)CNC[C@@H](O)[C@H](Cc1ccc(OCCOc2cccnc2)cc1)NC(=O)OC(C)(C)C [Compound 304, [1S-[1R*,2S* (2S*, 3R*)]]-[3-[[3-[[(1,1-Dimethylethoxy)carbonyl]amino]-2-hydroxy-4-[4-[2-(3-pyridinyloxy)ethoxylphenyl]butyl]amino]-2-hydroxy-1-(phenylmethyl)propyl]carbamic acid, 1,1-dimethylethyl ester] | 99 | 30 | – | – |
| CC(C)(C)OC(=O)N[C@@H](Cc1ccccc1)[C@H](O)CNC[C@@H](O)[C@H](Cc1ccccc1)NC(=O)OC1COC1 [Compound 319] | 93 | 1370 | – | – |
| CC(C)(C)OC(=O)N[C@@H](Cc1ccccc1)[C@H](O)CNC[C@@H](O)[C@H](Cc1ccccc1)NC(=O)OC(C)(C)CC#CCc1ccccc1 [Compound 167, [1S-(1R*,2S*))]-[Iminobis[2-hydroxy-1-(phenylmethyl)-3,1-propanediyl]biscarbamic acid, 1,1-dimethylethyl 1,1]-dimethyl-5-phenyl-3-pentynyl ester] | 97 | > 1800 | – | – |
| CC(C)(C)OC(=O)N[C@@H](Cc1ccccc1)[C@H](O)CNC[C@@H](O)[C@H](Cc1ccccc1)NC(=O)[C@@H](NC(=O)[C@H](Cc1ccccc1)NC=O)C(C)(C)C (relative stereo) [Compound 285, [1R*,2S*(2S*,3R*)]-N-[3-[[(1,1-Dimethylethoxy)carbonyl]amino]-2-hydroxy-4-phenylbutyl]amino]-2-hydroxy-1-(phenylmethyl)propyl]-N^2-(N-formyl-L-phenylalanyl)-3-methyl-L-valinamide] | 100 | 650 | – | – |
| CC(C)(C)OC(=O)N[C@@H](Cc1ccccc1)[C@H](O)CNC[C@@H](O)[C@H](Cc1ccccc1)NC(=O)[C@@H](NC(=O)OCc1cc2ncccc2o1)C(C)(C)C [Compound 323, [S-[1R*,2S*(2S*,3R*)]]-[r2,2-Dimethyl-1-[[[3-[[3-[[(1.1-dimethylethoxy)carbonyl]amino]-2-hydroxy-4-phenylbutyl]amino]-2-hydroxy-1-(phenylmethyl)propyl]amino]carbonyl]propyl]carbamic acid, (2-furo[3,2-b]pyridinyl)methyl ester] | 100 | 14 | – | – |
| CC(C)(C)OC(=O)N[C@@H](Cc1ccccc1)[C@H](O)CNC[C@@H](O)[C@H](Cc1ccc(OCCO)cc1)NC(=O)OC(C)(C)C [Compound 209, [1S-[1R*,2S*(2S*,3R*)]]-[3[[-3-[[(1,1-Dimethylethoxy)carbonyl]amino]-2-hydroxy-4-[4-(2-hydroxyethoxy)phenyl]butyl]amino]-2-hydroxy-1-(phenylmethyl)propyl]-carbamic acid, 1,1-dimethylethyl ester] | 99 | 30 | – | – |
| CC(C)[C@H](NC(=O)[C@@H](N)Cc1ccccc1)C(=O)N[C@@H](Cc1ccccc1)[C@H](O)CNC[C@@H](O)[C@H](Cc1ccccc1)NC(=O)OC(C)(C)C [Compound 84, [S-[1R*,2S*(2S*,3R*)]-N-[3-[[3-[[(1,1-Dimethylethoxy)carbonyl]amino]-2-hydroxy-4-phenylbutyl]amino]-2-hydroxy-1-(phenylmethyl)propyl)-L-valyl]-L-phenylalanamide, fumarate (2:3) salt] | 99 | 1200 | – | – |
| CC(C)(C)OC(=O)N[C@@H](Cc1ccccc1)[C@H](O)CNC[C@@H](O)[C@H](Cc1ccc(O)cc1)NC(=O)OC(C)(C)C [Compound 21, [1S-[1R*,2S*(2S*,3R*)]]-3-[[3-[[(1,1-Dimethylethoxy)carbonyl]amino]-2-hydroxy-4-(4-hydroxyphenyl)butyl]amino]-2-hydroxy-1-(phenylmethyl)propyl]carbamic acid, 1,1-dimethylethyl ester] | 99 | 90 | – | – |
| CC(C)[C@H](NC(=O)OCc1ccccc1)C(=O)N[C@@H](Cc1ccccc1)[C@H](O)CNC[C@@H](O)[C@H](Cc1ccccc1)N(C)C(=O)OC(C)(C)C [Compound 141, [S-[1R*,2S*(2S*,3R*)]-N-[3-[[3-[[(1,1-Dimethylethoxy)carbonyl]methylamino]-2-hydroxy-4-phenylbutyl]amino]-2-hydroxy-1-(phenylmethyl)propyl]-N^2-[(phenylmethoxy)-carbonyl]-L-valinamide]] | 77 | > 2300 | – | – |
| C[C@H](O)C(C)(C)OC(=O)N[C@@H](Cc1ccccc1)[C@H](O)CNC[C@@H](O)[C@H](Cc1ccccc1)NC(=O)OC(C)(C)C [Compound 232, [1S-(1R*,2S*),(R*)]-[Iminobis[2-hydroxy-1-(phenylmethyl)-3,1-propanediyl]]biscarbamic acid, 1,1-dimethylethyl 2-hydroxy-1,1-dimethylpropyl ester] | 99 | 50 | – | – |
| COCCOc1ccc(C[C@H](NC(=O)OC(C)(C)C)[C@H](O)CNC[C@@H](O)[C@H](Cc2ccccc2)NC(=O)OC(C)(C)CO)cc1 [Compound 299, [1S-[1R*, 2S*(2S*,3R*)]-[3-[[(1,1-Dimethylethoxy)carbonyl]amino]-2-hydroxy-4-[4-(2-methoxyethoxy)phenyl]butyl]amino]-2-hydroxy-1-(phenylmethyl)propyl]carbamic acid, 1-(hydroxymethyl)-1-methylethyl ester] | 99 | 240 | – | – |
| CC(C)(C)OC(=O)N[C@@H](Cc1ccccc1)[C@H](O)CNC[C@@H](O)[C@H](Cc1ccccc1)NC(=O)[C@@H](NC(=O)OCc1cc2ccncc2o1)C(C)(C)C [Compound 339, [S-[1R*,2S*(2S*,3R*)]]-[2,2-Dimethyl-1-[[[3-[[3-[[(1,1-dimethylethoxy)carbonyl]amino]-2-hydroxy-4-phenylbutyl]amino]-2-hydroxy-1-(phenylmethyl)-propyl]amino]carbonyl]propyl]carbamic acid, (2-furo[2,3-c]pyridinyl) methyl ester] | 99 | 12 | – | – |
| CC(C)(C)OC(=O)N[C@@H](Cc1ccccc1)[C@H](O)CNC[C@@H](O)[C@H](Cc1ccccc1)NC(=O)[C@](C)(O)c1ccccc1 [Compound 353, [1S-[1R*,2S*[2S*,3R*(S*)]]]-[3-[[3-[(2-Hydroxy-1-oxo-2-phenylpropyl)amino]-2-hydroxy-4-phenylbutyl]amino]-2-hydroxy-l-(phenylmethyl)propyl]carbamic acid, 1,1-dimethylethyl ester] | – | 1100 | 98 | – |
| CC(C)(C)OC(=O)N[C@@H](Cc1ccccc1)[C@H](O)CNC[C@@H](O)[C@H](CCc1ccccc1)NC(=O)OCc1ccccc1 [Compound 24, [1S-[1R*,2S*((2S*,3R*)]]-[3-[[3-[[(1,1-Dimethylethoxy)carbonyl]amino-2-hydroxy-4-phenylbutyl]amino]-2-hydroxy-1-(2-phenylethyl)propyl]carbamic acid, phenylmethyl ester] | 78 | 4500 | – | – |
| CC(C)[C@H](NC(=O)OCc1ccccc1)C(=O)N(C)[C@@H](Cc1ccccc1)[C@H](O)CNC[C@@H](O)[C@H](Cc1ccccc1)NC(=O)OC(C)(C)C [Compound 134, [S-[1R*,2S*(2S*,3R*)]]-N-[3-[[3-[[(1,1-Dimethylethoxy)carbonyl]amino]-2-hydroxy-4-phenylbutyl]amino]-2-hydroxy-1-(phenylmethyl)-propyl]-N-methyl-N^2-[(phenylmethoxy)carbonyl]-L-valinamide] | 87 | > 5000 | – | – |
| CC(C)(C)OC(=O)N[C@@H](Cc1ccccc1)[C@H](O)CNC[C@@H](O)[C@H](Cc1ccccc1)NC(=O)C(O)C(F)(F)F (single isomer, unassigned; isomer b) [Compound 272, [1S-[1R*,2S*(2S*,3R*)]]-[2-Hydroxy-1-(phenylmethyl)-3-[[2-hydroxy-4-phenyl-3-[(3.3,3-trifluoro-2-hydroxy-1-oxopropyl)amino]butyl]amino]propyl]carbamic acid,1,1-dimethylethyl ester (isomer B)] | – | – | – | 87 |
